# In patent US20250345329A1, “HETEROARYL DERIVATIVE COMPOUND AND USES THEREOF” (VORONOI, INC., priority 2022, published 2025):
# Legend:
# [1] = test system: Ba/F3 expressing EGFR Del19/T790M/C797S mutations; experiment: Inhibitory activity on proliferation of Ba/F3 cell overexpressing EGFR C797S (Cell Titer-Glo); format: cell-based; conditions: Mus musculus, BaF3; 72 hours treatment, cell growth rate vs control; read-out: Ba/F3 (EGFR DTC) GI50
# Experimental: <Experimental Example 2> Evaluation of Inhibitory Activity on Proliferation of Ba/F3 Cell Overexpressing EGFR C797S
# The following experiments were performed to evaluate the inhibitory activity of the compounds according to the present invention on the proliferation of Ba/F3 expressing EGFR Del19/T790M/C797S mutations.
# Ba/F3 cells were cultured in RPMI-1640 medium supplemented with 10% fetal bovine serum (FBS), and 3000 cells were seeded into each well of a white clear bottom 96 well plate (Corning) 24 hours prior to compound treatment. The compounds were diluted in dimethyl sulfoxide (3-fold dilution, total of 12 concentrations) and injected at 1 μl each so that the final concentration was […] to 5 μM. After 72 hours post treatment with compounds, living cells were reacted in a 37° C., CO2 incubator for […], followed by 10 minutes at room temperature using Cell Titer-Glo luminescent cell-viability reagent (Promega), and the luminescence intensity thereof was measured using a reader (SynergyNeo2, Biotek). The result values were calculated as a cell growth rate (%) compared to the control group. GI50 values were calculated using the GraphPad Prism version 8.4.3 (GraphPad software Inc., San Diego) program.
# [2] = molecular target: T1, human EGFR (d746-750/T790M/C797S) (Homo sapiens, UniProt P00533, C797S/DEL746-750/T790M); experiment: EGFR C797S enzyme inhibition activity (ADP-Glo kinase assay); format: biochemical; conditions: purified enzyme 3 ng, ATP 5 μM, 25° C., 1 hour, luminescence; read-out: EGFR DTC Enzyme IC50
# T1 construct: human EGFR (d746-750/T790M/C797S) (668-end, SignalChem); purchased SignalChem
# T1 sequence (P00533 with tags, fused parts or gaps DEL746-750/T790M/C797S): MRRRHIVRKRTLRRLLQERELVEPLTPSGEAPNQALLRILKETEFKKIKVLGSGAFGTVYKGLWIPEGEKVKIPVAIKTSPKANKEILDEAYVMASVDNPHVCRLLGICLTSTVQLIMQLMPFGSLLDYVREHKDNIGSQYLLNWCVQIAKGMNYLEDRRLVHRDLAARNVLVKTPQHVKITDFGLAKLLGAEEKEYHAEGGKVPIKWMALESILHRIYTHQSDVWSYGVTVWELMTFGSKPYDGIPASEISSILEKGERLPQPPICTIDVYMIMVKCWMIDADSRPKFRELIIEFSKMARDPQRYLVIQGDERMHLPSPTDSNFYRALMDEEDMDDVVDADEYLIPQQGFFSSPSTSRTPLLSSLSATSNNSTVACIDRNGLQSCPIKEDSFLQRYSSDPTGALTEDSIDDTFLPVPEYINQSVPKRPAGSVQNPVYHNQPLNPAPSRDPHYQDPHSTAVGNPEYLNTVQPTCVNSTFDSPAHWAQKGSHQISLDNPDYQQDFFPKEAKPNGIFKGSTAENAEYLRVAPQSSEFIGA
# Experimental: <Experimental Example 1> Evaluation of EGFR C797S Enzyme Inhibition Activity
# The compounds according to the present invention were reacted together with purified human EGFR (d746-750/T790M/C797S) (668-end, SignalChem) enzyme and a specific substrate and evaluated for enzyme inhibitory activity as described below. The reaction buffer consisted of 40 mM Tris-HCl pH 7.4, 20 mM MgCl2, 0.5 mg/ml BSA, and 50 μM DTT, and all reactions of the test substances were performed in reaction buffers. The compounds were serially diluted in 12 steps from a 10 mM DMSO stock, and the enzyme activity was measured at the final compound concentrations of 10, 3, 1, 0.3, 0.1, 0.03, 0.01, 0.003, 0.001, 0.0003, 0.0001, and 0 μM. In the assay, human EGFR (d746-750/T790M/C797S) (3 ng) enzyme was reacted with purified ATP (5 μM) and enzyme substrate (0.2 μg) at 25° C. for 1 hour, and the enzyme activity was determined using the in vitro ADP-Glo™ kinase assay (Promega). The enzyme activity inhibition was measured via luminescence by reacting the enzyme activity reaction solution, ADP-Glo reaction solution, and enzyme activity detection solution in a 2:2:1 ratio. Based on the luminescence of the enzyme activity of the solvent control group that was not treated with the compound, the degree of the enzyme activity inhibition depending on the treatment concentration of each compound was calculated, wherein the concentration of each compound that inhibited the enzyme activity by 50% was determined as the IC50 (nM) value, which was obtained using GraphPad Prism 8.4.3 (GraphPad software Inc., San Diego).
Compound,GI50 [1],IC50 [2]
"CC(C)Nc1cc(Nc2ccnc(-c3cnn(S(=O)(=O)C4CC4)c3)n2)ncc1C(=O)NC1CCS(=O)(=O)C1 (stereo not shown) [Example 36, 6-((2-(1-(cyclopropylsulfonyl)-1H-pyrazol-4-yl)pyrimidin-4-yl)amino)-N-(1,1-dioxydotetrahydrothi-ophen-3-yl)-4-(isopropylamino)nico-tinamide]",500 to 5000 nM,< 50 nM
"CC(C)Nc1cc(Nc2ccnc(-c3cnn(S(=O)(=O)C4CC4)c3)n2)ncc1C(=O)NCC(F)(F)F [Example 78, 6-((2-(1-(cyclopropylsulfonyl)-1H-pyrazol-4-yl)pyrimidin-4-yl)amino)-4-(isopropylamino)-N-(2,2,2-trifluoroethyl)nicotin-amide]",500 to 5000 nM,< 50 nM
"CC(C)Nc1cc(Nc2ccnc(-c3cnn(S(=O)(=O)C4CC4)c3)n2)ncc1C(=O)NCc1ccc(C#N)cc1 [Example 55, N-(4-cyanobenzyl)-6-((2-(1-(cyclopropylsulfonyl)-1H-pyrazol-4-yl)pyrimidin-4-yl)amino)-4-(isopropylamino)nico-tinamide]",500 to 5000 nM,50 to 500 nM
"CC(C)Nc1cc(Nc2ccnc(-c3cnn(S(=O)(=O)C4CC4)c3)n2)ncc1C(=O)NCCS(C)(=O)=O [Example 35, 6-((2-(1-(cyclopropylsulfonyl)-1H-pyrazol-4-yl)pyrimidin-4-yl)amino)-4-(isopropylamino)-N-(2-(methylsulfonyl)ethyl) nicotinamide]",500 to 5000 nM,< 50 nM
"CC(C)Nc1cc(Nc2ccnc(-c3cnn(S(=O)(=O)C4CC4)c3)n2)ncc1C(=O)NCCCN(C)C(=O)OC(C)(C)C [Example 58, tert-butyl (3-(6-((2-(1-(cyclopropylsulfonyl)-1H-pyrazol-4-yl)pyrimidin-4-yl)amino)-4-(isopropylamino)nico-tinamido)propyl)(meth-yl)carbamate]",500 to 5000 nM,50 to 500 nM
"C[C@H]1CCOc2c(cnn2C)-c2nccc(n2)Nc2cc(c(C(=O)NCC3CCCC3)cn2)N1 [Example 86, (S)-N-(cyclopentylmethyl)-1^1,6-dimethyl-1^1H-9-oxa-3,5-diaza-2(2,4)-pyrimidina-4(2,4)-pyridina-1(4,5)-pyrazolacyclo-nonaphane-4^5-carboxamide]",< 500 nM,< 50 nM
"CC(C)Nc1cc(Nc2ccnc(-c3cnn(S(=O)(=O)C4CC4)c3)n2)ncc1C(=O)NCCS(=O)(=O)N(C)C [Example 73, 6-((2-(1-(cyclopropylsulfonyl)-1H-pyrazol-4-yl)pyrimidin-4-yl)amino)-N-(2-(N,N-dimethylsulfamoyl)eth-yl)-4-(isopropylamino)nico-tinamide]",500 to 5000 nM,< 50 nM
"CO[C@H]1CCN(c2nccc(Nc3cc(NC(C)C)c(C(=O)Nc4cccc(N5CCN(C)CC5)c4)cn3)n2)C[C@H]1F (relative stereo) [Example 41, 6-((2-(cis-3-fluoro-4-methoxypiperidin-1-yl)pyrimidin-4-yl)amino)-4-(isopropylamino)-N-(3-(4-methylpiperaizn-1-yl)phenyl)nicotinamide]",500 to 5000 nM,< 50 nM
"CC(C)Nc1cc(Nc2ccnc(N3CCOCC3)n2)ncc1C(=O)N1CC(CS(C)(=O)=O)C1 [Example 10, (4-(isopropylamino)-6-((2-morpholinopyrimidin-4-yl)amino)pyridin-3-yl)(3-((methylsulfonyl)meth-yl)azetidin-1-yl)methanone]",500 to 5000 nM,< 50 nM
"CC(C)Nc1cc(Nc2ccnc(-c3cnn(S(=O)(=O)C4CC4)c3)n2)ncc1C(=O)NC1CCN(S(C)(=O)=O)C1 (stereo not shown) [Example 49, 6-((2-(1-(cyclopropylsulfonyl)-1H-pyrazol-4-yl)pyrimidin-4-yl)amino)-4-(isopropylamino)-N-(1-(methylsulfonyl)pyrro-lidin-3-yl)nicotinamide]",500 to 5000 nM,< 50 nM
"C[C@H]1CCOc2c(cnn2C)-c2nccc(n2)Nc2cc(c(C(=O)NCCS(C)(=O)=O)cn2)N1 [Example 110, (S)-1^1,6-dimethyl-N-(2-(methylsulfonyl)ethyl)-1^1H-9-oxa-3,5-diaza-2(2,4)-pyrimidina-4(2,4)-pyridina-1(4,5)-pyrazolacyclo-nonaphane-4^5-carboxamide]",500 to 5000 nM,< 50 nM
"CC(C)Nc1cc(Nc2ccnc(-c3cnn(S(=O)(=O)C4CC4)c3)n2)ncc1C(=O)NCCCS(C)(=O)=O [Example 64, 6-((2-(1-(cyclopropylsulfonyl)-1H-pyrazol-4-yl)pyrimidin-4-yl)amino)-4-(isopropylamino)-N-(3-(methyl-sulfonyl)propyl) nicotinamide]",500 to 5000 nM,50 to 500 nM
"COC(=O)c1cnc2cc1N[C@@H](C)CCOc1c(cnn1C)-c1nccc(n1)N2 [Example 102, methyl(S)-1^1,6-dimethyl-1^1H-9-oxa-3,5-diaza-2(2,4)-pyrimidina-4(2,4)-pyridina-1(4,5)-pyrazolacyclo-nonaphane-4^5-carboxylate]",< 500 nM,< 50 nM
"CO[C@H]1CCN(c2nccc(Nc3cc(NC(C)C)c(C(=O)NCCC(F)(F)F)cn3)n2)C[C@H]1F (relative stereo) [Example 98, 6-((2-(cis-3-fluoro-4-methoxypiperidin-1-yl)pyrimidin-4-yl)amino)-4-(isopropylamino)-N-(3,3,3-trifluoropropyl)nico-tinamide]",< 500 nM,< 50 nM
"CC(C)Nc1cc(Nc2ccnc(-c3cnn(S(=O)(=O)C4CC4)c3)n2)ncc1C(=O)NC1CN(S(C)(=O)=O)C1 [Example 48, 6-((2-(1-(cyclopropylsulfonyl)-1H-pyrazol-4-yl)pyrimidin-4-yl)amino)-4-(isopropylamino)-N-(1-(methylsulfonyl)azeti-din-3-yl)nicotinamide]",< 500 nM,< 50 nM
"CO[C@H]1CCN(c2nccc(Nc3cc(NC(C)C)c(C(=O)Nc4cc(N5CCN(C)CC5)cc(C(C)(C)C#N)c4)cn3)n2)C[C@H]1F (relative stereo) [Example 42, N-(3-(2-cyanopropan-2-yl)-5-(4-methylpiperazin-1-yl)phenyl)-6-((2-(cis-3-fluoro-4-methoxypiperidin-1-yl)pyrimidin-4-yl)amino)-4-(isopropylamino)nico-tinamide]",500 to 5000 nM,< 50 nM
"CC(C)Nc1cc(Nc2ccnc(-c3cnn(S(=O)(=O)C4CC4)c3)n2)ncc1C(=O)Nc1cc(CN2CCN(C)CC2)cc(C(F)(F)F)c1 [Example 25, 6-((2-(1-(cyclopropylsulfonyl)-1H-pyrazol-4-yl)pyrimidin-4-yl)amino)-4-(isopropylamino)-N-(3-((4-methylpiperazin-1-yl)methyl)-5-(trifluoromethyl)phe-nyl)nicotinamide]",500 to 5000 nM,50 to 500 nM
"CC(C)Nc1cc(Nc2ccnc(-c3cnn(S(=O)(=O)C4CC4)c3)n2)ncc1C(=O)N1CC(CS(C)(=O)=O)C1 [Example 1, (6-((2-(1-(cyclopropylsulfonyl)-1H-pyrazol-4-yl)pyrimidin-4-yl)amino)-4-(isopropylamin)pyri-din-3-yl)(3-((methylsulfonyl)meth-yl)azetidin-1-yl)methanone]",500 to 5000 nM,< 50 nM
"C[C@H]1CCOc2c(cnn2C)-c2nccc(n2)Nc2cc(c(C(=O)Nc3cccc(N4CCN(C)CC4)c3)cn2)N1 [Example 100, (S)-1^1,6-dimethyl-N-(3-(4-methylpiperazin-1-yl)phenyl)-1^1H-9-oxa-3,5-diaza-2(2,4)-pyrimidina-4(2,4)-pyridina-1(4.5)-pyrazolacyclo-nonaphane-4^5-carboxamide]",< 500 nM,< 50 nM
"CC(C)Nc1cc(Nc2ccnc(-c3cnn(S(=O)(=O)C4CC4)c3)n2)ncc1C(=O)NCCN1CCOCC1 [Example 83, 6-((2-(1-(cyclopropylsulfonyl)-1H-pyrazol-4-yl)pyrimidin-4-yl)amino)-4-(isopropylamino)-N-(2-morpholinoethyl)nico-tinamide]",< 500 nM,< 50 nM
